Data on 16 molecules can be found in US12552775B2, “Compounds and uses thereof” (Foghorn Therapeutics Inc., priority 2020, dated 2026).

One assay deals with T1, HiBit-BRM fusion protein (Homo sapiens, UniProt P51531).
T1 construct: expressed in transfected cells
Put plainly: HiBiT-BRM cell-based degradation assay (Nano-Glo HiBiT Lytic Detection, 24 h). Conditions: stable HeLa cell line expressing HiBiT-BRM, top dose 30 μM. Here is the method: (§1) Procedure: A stable HeLa cell line expressing HiBiT-BRM was generated. On day 0, 5000 cells were seeded in 40 μL of media into each well of 384-well cell culture plates. On day 1, cells were treated with 120 nL DMSO or 120 nL of 3-fold serially DMSO-diluted compounds (10 points in duplicate with 30 μM as final top dose). Subsequently plates were incubated for 24 h in a standard tissue culture incubator and equilibrated at room temperature for 15 minutes. Nano-Glo HiBiT Lytic Detection System (Promega N3050) reagent was freshly prepared and 20 ul was added to each well. Upon addition of this LgBit-containing reagent, the HiBiT and LgBiT proteins associate to form the luminescent NanoBiT luciferase. The plates were shaken for 10 minutes at room temperature and the bioluminescence read using an EnVision plate reader (PerkinElmer).
(§2) The degradation % was calculated using the following formula: % degradation=100%−100%×(Lumsample−LumLC)/(LumHC−LumLC). DMSO treated cells are employed as High Control (HC) and 2 μM of a known BRM/BRG1 degrader standard treated cells are employed as Low Control (LC).

Assay [1] addresses T2, HiBit-BRG1 fusion protein (Homo sapiens, UniProt P51532).
T2 construct: expressed in transfected cells
The assay can be described thus: HiBiT-BRG1 cell-based degradation assay (Nano-Glo HiBiT Lytic Detection, 24 h). Conditions: stable HeLa cell line expressing HiBit-BRG1 and LgBit, top dose 30 μM, read-out: BRG1 HiBit Degradation Maximum (%). The protocol:
as §1
For measurement of BRG1 degradation, a stable HeLa cell line expressing HiBit-BRG1 and LgBit was generated. The same protocol as above was then followed.
as §2

Molecules are shown by their SMILES.

T1 sequence (P51531 whole entry, the tested form may be a part): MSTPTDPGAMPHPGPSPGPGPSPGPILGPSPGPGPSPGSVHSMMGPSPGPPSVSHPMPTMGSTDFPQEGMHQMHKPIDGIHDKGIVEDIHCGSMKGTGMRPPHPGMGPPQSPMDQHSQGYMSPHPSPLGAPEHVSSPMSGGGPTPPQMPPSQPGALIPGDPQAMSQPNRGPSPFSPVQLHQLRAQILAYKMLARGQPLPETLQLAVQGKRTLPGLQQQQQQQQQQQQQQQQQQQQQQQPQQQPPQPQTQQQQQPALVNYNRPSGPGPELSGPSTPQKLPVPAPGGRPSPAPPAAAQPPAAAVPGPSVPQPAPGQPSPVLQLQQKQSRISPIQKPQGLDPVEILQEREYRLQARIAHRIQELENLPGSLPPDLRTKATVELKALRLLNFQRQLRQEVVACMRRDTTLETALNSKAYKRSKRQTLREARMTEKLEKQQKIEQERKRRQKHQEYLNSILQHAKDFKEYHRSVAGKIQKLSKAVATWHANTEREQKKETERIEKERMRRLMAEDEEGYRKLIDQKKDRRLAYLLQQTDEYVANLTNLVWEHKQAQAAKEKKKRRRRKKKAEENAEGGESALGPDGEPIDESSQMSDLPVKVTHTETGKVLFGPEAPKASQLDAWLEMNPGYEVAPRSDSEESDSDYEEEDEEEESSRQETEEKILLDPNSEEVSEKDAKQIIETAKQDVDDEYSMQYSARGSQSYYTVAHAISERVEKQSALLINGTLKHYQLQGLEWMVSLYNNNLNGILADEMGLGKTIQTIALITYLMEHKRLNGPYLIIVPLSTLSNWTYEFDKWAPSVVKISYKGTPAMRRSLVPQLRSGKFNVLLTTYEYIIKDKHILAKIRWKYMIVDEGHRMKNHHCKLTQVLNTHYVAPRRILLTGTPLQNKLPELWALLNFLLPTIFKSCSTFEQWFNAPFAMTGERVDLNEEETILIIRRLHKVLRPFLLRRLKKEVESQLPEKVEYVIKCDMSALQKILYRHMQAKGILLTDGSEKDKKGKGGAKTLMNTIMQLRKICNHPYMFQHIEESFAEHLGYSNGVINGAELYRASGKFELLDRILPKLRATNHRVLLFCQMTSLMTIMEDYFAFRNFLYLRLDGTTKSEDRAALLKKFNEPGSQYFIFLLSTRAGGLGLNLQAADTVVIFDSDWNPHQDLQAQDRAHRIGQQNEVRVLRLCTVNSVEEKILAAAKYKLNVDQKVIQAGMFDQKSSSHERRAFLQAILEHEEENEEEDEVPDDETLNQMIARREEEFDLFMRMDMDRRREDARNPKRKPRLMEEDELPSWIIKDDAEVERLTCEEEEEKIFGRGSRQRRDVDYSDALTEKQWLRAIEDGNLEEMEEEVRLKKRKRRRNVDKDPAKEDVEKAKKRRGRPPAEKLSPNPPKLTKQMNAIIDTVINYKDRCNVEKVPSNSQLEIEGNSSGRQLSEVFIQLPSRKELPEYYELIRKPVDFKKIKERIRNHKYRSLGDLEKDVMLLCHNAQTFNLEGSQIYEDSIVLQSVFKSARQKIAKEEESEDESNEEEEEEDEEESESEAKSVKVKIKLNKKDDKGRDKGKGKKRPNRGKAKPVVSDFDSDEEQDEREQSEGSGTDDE
T2 sequence (P51532 whole entry, the tested form may be a part): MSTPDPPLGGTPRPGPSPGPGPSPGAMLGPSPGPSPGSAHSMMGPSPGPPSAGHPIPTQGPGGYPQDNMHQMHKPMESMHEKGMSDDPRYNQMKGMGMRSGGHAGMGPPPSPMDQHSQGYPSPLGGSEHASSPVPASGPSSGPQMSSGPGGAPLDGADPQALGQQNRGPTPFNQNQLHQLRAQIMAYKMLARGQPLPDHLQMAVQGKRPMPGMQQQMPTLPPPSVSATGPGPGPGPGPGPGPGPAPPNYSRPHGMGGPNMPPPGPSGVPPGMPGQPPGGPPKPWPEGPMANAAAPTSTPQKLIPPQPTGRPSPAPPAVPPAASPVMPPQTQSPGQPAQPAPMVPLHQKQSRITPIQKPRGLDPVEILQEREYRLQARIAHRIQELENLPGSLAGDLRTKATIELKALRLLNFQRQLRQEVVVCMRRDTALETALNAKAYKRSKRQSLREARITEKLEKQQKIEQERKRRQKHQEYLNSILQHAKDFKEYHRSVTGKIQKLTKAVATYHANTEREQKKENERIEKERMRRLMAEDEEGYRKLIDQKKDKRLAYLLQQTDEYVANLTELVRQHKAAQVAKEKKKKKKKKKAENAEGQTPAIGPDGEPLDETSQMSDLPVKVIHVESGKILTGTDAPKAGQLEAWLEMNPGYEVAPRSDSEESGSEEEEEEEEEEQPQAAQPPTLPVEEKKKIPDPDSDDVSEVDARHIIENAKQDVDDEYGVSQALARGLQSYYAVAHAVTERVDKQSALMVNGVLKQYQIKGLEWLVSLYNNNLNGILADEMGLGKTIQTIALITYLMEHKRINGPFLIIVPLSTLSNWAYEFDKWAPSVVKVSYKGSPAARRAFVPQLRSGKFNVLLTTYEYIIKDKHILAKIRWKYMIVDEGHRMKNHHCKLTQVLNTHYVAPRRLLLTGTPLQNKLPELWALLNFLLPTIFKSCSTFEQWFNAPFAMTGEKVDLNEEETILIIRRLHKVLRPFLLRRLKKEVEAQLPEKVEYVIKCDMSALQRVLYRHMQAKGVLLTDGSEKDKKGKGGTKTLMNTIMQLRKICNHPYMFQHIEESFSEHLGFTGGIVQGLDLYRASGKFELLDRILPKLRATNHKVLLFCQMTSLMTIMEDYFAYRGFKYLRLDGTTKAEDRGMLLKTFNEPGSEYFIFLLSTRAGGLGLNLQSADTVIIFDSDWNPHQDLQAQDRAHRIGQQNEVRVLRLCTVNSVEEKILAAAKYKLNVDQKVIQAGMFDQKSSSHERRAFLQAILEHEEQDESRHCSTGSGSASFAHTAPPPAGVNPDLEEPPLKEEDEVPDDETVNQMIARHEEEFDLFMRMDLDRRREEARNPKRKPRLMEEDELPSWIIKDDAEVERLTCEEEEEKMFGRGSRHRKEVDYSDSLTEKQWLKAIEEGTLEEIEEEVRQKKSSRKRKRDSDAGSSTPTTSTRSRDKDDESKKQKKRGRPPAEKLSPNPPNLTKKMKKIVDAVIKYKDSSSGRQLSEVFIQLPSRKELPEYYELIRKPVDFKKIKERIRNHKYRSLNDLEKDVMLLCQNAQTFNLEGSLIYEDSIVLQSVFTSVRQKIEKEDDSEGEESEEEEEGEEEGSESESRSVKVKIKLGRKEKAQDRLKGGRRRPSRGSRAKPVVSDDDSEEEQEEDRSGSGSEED

Regarding `Nc1nnc(-c2ccccc2O)cc1OCCC12CC(NC(=O)C3CCN(CCOc4ccc5c(c4)C(=O)N(C4CCC(=O)NC4=O)C5=O)CC3)(C1)C2` (centres unmarked) [Compound 32, N-(3-(2-((3-amino-6-(2-hydroxyphenyl)pyridazin-4-yl)oxy)ethyl)bicyclo[1.1.1]pentan-1-yl)-1-(2-((2-(2,6-dioxopiperidin-3-yl)-1,3-dioxoisoindolin-5-yl)oxy)ethyl)piperidine-4-carboxamide], at HiBit-BRM fusion protein, the “BRM HiBit Degradation Maximum (%)” value was “B (“B” indicates maximum degradation ≥ 50%)”. Also, the Dmax in assay [1] is below 50%.
On to `CN(CCNC(=O)C12CC(COc3cc(-c4ccccc4O)nnc3N)(C1)C2)CCNc1cccc2c1C(=O)N(C1CCC(=O)NC1=O)C2=O` (centres unmarked) [Compound 77, 3-(((3-amino-6-(2-hydroxyphenyl)pyridazin-4-yl)oxy)methyl)-N-(2-((2-((2-(2,6-dioxopiperidin-3-yl)-1,3-dioxoisoindolin-4-yl)amino)ethyl)(methyl)amino)ethyl)bicyclo[1.1.1]pentane-1-carboxamide], for which the “BRM HiBit Degradation Maximum (%)” value on HiBit-BRM fusion protein is listed as “C (“C” indicates maximum degradation < 50%)”. Moreover, the Dmax in assay [1] is below 50%.
Regarding `Nc1nnc(-c2ccccc2O)cc1OCC12CC(C(=O)NCCOC3CN(c4ccc5c(c4)C(=O)N(C4CCC(=O)NC4=O)C5=O)C3)(C1)C2` (centres unmarked) [Compound 81, 3-(((3-amino-6-(2-hydroxyphenyl)pyridazin-4-yl)oxy)methyl)-N-(2-((1-(2-(2,6-dioxopiperidin-3-yl)-1,3-dioxoisoindolin-5-yl)azetidin-3-yl)oxy)ethyl)bicyclo[1.1.1]pentane-1-carboxamide], at HiBit-BRM fusion protein, the “BRM HiBit Degradation Maximum (%)” value is “B (“B” indicates maximum degradation ≥ 50%)”. The Dmax in assay [1] is above 50%.
Regarding `Nc1nnc(-c2ccccc2O)cc1OCC12CC(C(=O)N3CCC(CCN4CCN(c5ccc6c(c5)C(=O)N(C5CCC(=O)NC5=O)C6=O)CC4)CC3)(C1)C2` (centres unmarked) [Compound 94, 5-(4-(2-(1-(3-(((3-amino-6-(2-hydroxyphenyl)pyridazin-4-yl)oxy)methyl)bicyclo[1.1.1]pentane-1-carbonyl)piperidin-4-yl)ethyl)piperazin-1-yl)-2-(2,6-dioxopiperidin-3-yl)isoindoline-1,3-dione], the “BRM HiBit Degradation Maximum (%)” value at HiBit-BRM fusion protein is “B (“B” indicates maximum degradation ≥ 50%)”. For the same molecule, in assay [1], the Dmax was below 50%.
Regarding `Cc1ncsc1-c1ccc(CNC(=O)[C@@H]2C[C@@H](O)CN2C(=O)[C@@H](NC(=O)CCCCCCCCCCC(=O)NCC23CC(COc4cc(-c5ccccc5O)nnc4N)(C2)C3)C(C)(C)C)cc1` [Compound 38, N1-((3-(((3-amino-6-(2-hydroxyphenyl)pyridazin-4-yl)oxy)methyl)bicyclo[1.1.1]pentan-1-yl)methyl)-N12-((S)-1-((2S,4R)-4-hydroxy-2-((4-(4-methylthiazol-5-yl)benzyl)carbamoyl)pyrrolidin-1-yl)-3,3-dimethyl-1-oxobutan-2-yl)dodecanediamide], the “BRM HiBit Degradation Maximum (%)” value on HiBit-BRM fusion protein is listed as “B (“B” indicates maximum degradation ≥ 50%)”. For the same molecule, in assay [1], the Dmax was below 50%.
Taken in the same sequence, the figures for `Nc1nnc(-c2ccccc2O)cc1OCC12CC(CNC(=O)CCOCCOCCNc3ccc4c(c3)C(=O)N(C3CCC(=O)NC3=O)C4=O)(C1)C2` (centres unmarked) [Compound 6, N-[[3-([[3-amino-6-(2-hydroxyphenyl)pyridazin-4-yl]oxy]methyl)bicyclo[1.1.1]pentan-1-yl]methyl]-3-[2-(2-[[2-(2,6-dioxopiperidin-3-yl)-1,3-dioxoisoindol-5-yl]amino]ethoxy)ethoxy]propanamide] were “C (“C” indicates maximum degradation < 50%)” and below 50%.
Taken in the same sequence, the figures for `Nc1nnc(-c2ccccc2O)cc1OCC12CC(C(=O)N3CCN(CCCC#Cc4ccc5c(c4)C(=O)N(C4CCC(=O)NC4=O)C5=O)CC3)(C1)C2` (centres unmarked) [Compound 51, 5-(5-(4-(3-(((3-amino-6-(2-hydroxyphenyl)pyridazin-4-yl)oxy)methyl)bicyclo[1.1.1]pentane-1-carbonyl)piperazin-1-yl)pent-1-yn-1-yl)-2-(2,6-dioxopiperidin-3-yl)isoindoline-1,3-dione] were “C (“C” indicates maximum degradation < 50%)” and below 50%.
Regarding `Nc1nnc(-c2ccccc2O)cc1OCC12CC(C(=O)N3CCN(CCCOCC#Cc4ccc5c(c4)C(=O)N(C4CCC(=O)NC4=O)C5=O)CC3)(C1)C2` (centres unmarked) [Compound 52, 5-(3-(3-(4-(3-(((3-amino-6-(2-hydroxyphenyl)pyridazin-4-yl)oxy)methyl)bicyclo[1.1.1]pentane-1-carbonyl)piperazin-1-yl)propoxy)prop-1-yn-1-yl)-2-(2,6-dioxopiperidin-3-yl)isoindoline-1,3-dione], on HiBit-BRM fusion protein, the “BRM HiBit Degradation Maximum (%)” value is reported as “C (“C” indicates maximum degradation < 50%)”. The Dmax in assay [1] was below 50%.
The corresponding values for `Nc1nnc(-c2ccccc2O)cc1OCCC12CC(NC(=O)CCCCOc3cccc4c3C(=O)N(C3CCC(=O)NC3=O)C4=O)(C1)C2` (centres unmarked) [Compound 19, N-(3-(2-((3-amino-6-(2-hydroxyphenyl)pyridazin-4-yl)oxy)ethyl)bicyclo[1.1.1]pentan-1-yl)-5-((2-(2,6-dioxopiperidin-3-yl)-1,3-dioxoisoindolin-4-yl)oxy)pentanamide] are “C (“C” indicates maximum degradation < 50%)” and below 50%.
With `Nc1nnc(-c2ccccc2O)cc1OCCC12CC(NC(=O)C3CC3CNC(=O)COc3ccc4c(c3)C(=O)N(C3CCC(=O)NC3=O)C4=O)(C1)C2` (centres unmarked) [Compound 29, N-(3-(2-((3-amino-6-(2-hydroxyphenyl)pyridazin-4-yl)oxy)ethyl)bicyclo[1.1.1]pentan-1-yl)-2-((2-((2-(2,6-dioxopiperidin-3-yl)-1,3-dioxoisoindolin-5-yl)oxy)acetamido)methyl)cyclopropane-1-carboxamide], the “BRM HiBit Degradation Maximum (%)” value at HiBit-BRM fusion protein was “C (“C” indicates maximum degradation < 50%)”. Further, the Dmax in assay [1] is below 50%.
The corresponding values for `Nc1nnc(-c2ccccc2O)cc1OCCC12CC(NC(=O)CCCCCCCCCCNc3ccc4c(c3)C(=O)N(C3CCC(=O)NC3=O)C4=O)(C1)C2` (centres unmarked) [Compound 26, N-[3-(2-[[3-amino-6-(2-hydroxyphenyl)pyridazin-4-yl]oxy]ethyl)bicyclo[1.1.1]pentan-1-yl]-11-[[2-(2,6-dioxopiperidin-3-yl)-1,3-dioxoisoindol-5-yl]amino]undecanamide] are “C (“C” indicates maximum degradation < 50%)” and below 50%.
Taken in the same sequence, the figures for `Nc1nnc(-c2ccccc2O)cc1OCC12CC(C(=O)N3CC(COc4cccc5c4C(=O)N(C4CCC(=O)NC4=O)C5=O)C3)(C1)C2` (centres unmarked) [Compound 87, 4-((1-(3-(((3-amino-6-(2-hydroxyphenyl)pyridazin-4-yl)oxy)methyl)bicyclo[1.1.1]pentane-1-carbonyl)azetidin-3-yl)methoxy)-2-(2,6-dioxopiperidin-3-yl)isoindoline-1,3-dione] were “C (“C” indicates maximum degradation < 50%)” and below 50%.
In the case of `Nc1nnc(-c2ccccc2O)cc1OCC12CC(CNC(=O)C3CC3CNC(=O)COc3cccc4c3C(=O)N(C3CCC(=O)NC3=O)C4=O)(C1)C2` (centres unmarked) [Compound 12, N-[[3-([[3-amino-6-(2-hydroxyphenyl)pyridazin-4-yl]oxy]methyl)bicyclo[1.1.1]pentan-1-yl]methyl]-2-[(2-[[2-(2,6-dioxopiperidin-3-yl)-1,3-dioxoisoindol-4-yl]oxy]acetamido)methyl]cyclopropane-1-carboxamide], the “BRM HiBit Degradation Maximum (%)” value on HiBit-BRM fusion protein is “C (“C” indicates maximum degradation < 50%)”. Further, the Dmax in assay [1] was below 50%.
The corresponding values for `Nc1nnc(-c2ccccc2O)cc1OCC12CC(C(=O)NCCOc3cccc(OCCNc4ccc5c(c4)C(=O)N(C4CCC(=O)NC4=O)C5=O)c3)(C1)C2` (centres unmarked) [Compound 82, 3-(((3-amino-6-(2-hydroxyphenyl)pyridazin-4-yl)oxy)methyl)-N-(2-(3-(2-((2-(2,6-dioxopiperidin-3-yl)-1,3-dioxoisoindolin-5-yl)amino)ethoxy)phenoxy)ethyl)bicyclo[1.1.1]pentane-1-carboxamide] are “C (“C” indicates maximum degradation < 50%)” and below 50%.
As for `Nc1nnc(-c2ccccc2O)cc1OCCC12CC(NC(=O)CCOCCOCCOc3ccc4c(c3)C(=O)N(C3CCC(=O)NC3=O)C4=O)(C1)C2` (centres unmarked) [Compound 31, N-(3-(2-((3-amino-6-(2-hydroxyphenyl)pyridazin-4-yl)oxy)ethyl)bicyclo[1.1.1]pentan-1-yl)-3-(2-(2-((2-(2,6-dioxopiperidin-3-yl)-1,3-dioxoisoindolin-5-yl)oxy)ethoxy)ethoxy)propanamide], the “BRM HiBit Degradation Maximum (%)” value at HiBit-BRM fusion protein was “C (“C” indicates maximum degradation < 50%)”. The Dmax in assay [1] is below 50%.
Turning to `Nc1nnc(-c2ccccc2O)cc1OCC12CC(C(=O)N3CC(Oc4ccc5c(c4)C(=O)N(C4CCC(=O)NC4=O)C5=O)C3)(C1)C2` (centres unmarked) [Compound 96, 5-((1-(3-(((3-amino-6-(2-hydroxyphenyl)pyridazin-4-yl)oxy)methyl)bicyclo[1.1.1]pentane-1-carbonyl)azetidin-3-yl)oxy)-2-(2,6-dioxopiperidin-3-yl)isoindoline-1,3-dione], on HiBit-BRM fusion protein, the “BRM HiBit Degradation Maximum (%)” value is reported as “C (“C” indicates maximum degradation < 50%)”. The Dmax in assay [1] is below 50%.
